How the values were obtained:
[1] = test system: butanol-producing Clostridium strain; assay type: cell-based
Clostridium = details: in the fermentation medium

Row | SMILES | transformation of un-fermentable hydrolysate into fermentable feedstock supporting microbial growth and butanol production ([1]; 2 g/L to 5 g/L metal salt, pH 9 to 10.5, 20° C. to 40° C.) | butanol concentration after microbial fermentation for 72 hours ([1]; hydrolysate treated with 3 g/L […] or 2 g/l ferric chloride, pH 9.5, room temperature (about 20° C.), fermentation 10 ml, 30° C.) [g/L] | concentration at which it becomes inhibitory to growth of Clostridium and subsequent production of butanol (Clostridium) [g/L]
1 | [Cl][Fe]([Cl])[Cl] [ferric chloride] | successful | 7.69 | –
2 | O=CO [Formic acid] | – | – | 0.3 to 0.4
